Reference: patent US4179337A, “Non-immunogenic polypeptides” (priority 1977, dated 1979)

Tests used:
[1] = system: rabbit antiserum after immunization with catalase; assay: Microtiter complement-fixation test; format: binding; conditions: initial and booster sera
Protocol: (§1) Immunization - New Zealand, white adult female rabbits were immunized by the intravenous route with a 1.5 mg/ml. stock solution of beef liver catalase for a period of 4 weeks by which time it received a total of 55 mg. of catalase. Rabbits were bled by cardiac puncture 7 and 14 days after completion of the immunization schedule. Approximately 1 month later, rabbits were injected with 5 mg. of the appropriate antigen and bled by cardiac puncture 1 week after receiving the booster injection.
(§2) Rabbit antisera obtained after initial or booster immunization were assayed in vitro for precipitating (1) and complement fixing activities (2,3). Each antiserum (undiluted, 1/10, 1/50) was set up in gel diffusion plates (1.0% Noble Agar in physiological saline with 1.0% azide added as preservative) against both catalase and PEG-HTA-catalase solutions (concentrations ranging from 1000γ/ml. to 5γ/ml). Plates were incubated at room temperature for 48 hours and at 4° C. for 3-4 days. Complement fixing activity of the heat inactivated, sheep red blood cell absorbed antisera was determined using the Microtiter Complement-fixation test (Cooke Engineering Co., Alexandria, Virginia). Antisera were run 1:1 and 1:10 dilutions against catalse and PEG-HTA-catalase dilutions ranging from 1000γ/ml. down to 15γ/ml. Plates were read for presence or absence of hemolysis following incubation at 37° C. for 30 minutes.

[2] = system: rabbit antiserum after immunization with catalase; assay: Gel diffusion test for precipitating antibodies; format: binding; conditions: antiserum against native catalase, tested undiluted and 1/10
Protocol: as §1, §2

[3] = system: rats made diabetic utilizing alloxan injections; assay: PEG insulin rat assay, alloxan diabetic rats; format: in vivo; set-up: % Drop Over Control: concentration or dose not given beside the values
[4] = system: insulin antiserum; assay: PEG-insulin immunoassay (radioimmunoassay); format: binding
Protocol: PEG-HTA-Insulin was prepared in accordance with Example II and tested for antigenic activity by the method of […]

[5] = system: test rabbits; assay: PEG-HTA-insulin assay, blood sugar levels in test rabbits (Glucostat method); format: in vivo, rabbit; conditions: after 3 hours, same amount of insulin injected
Protocol: Preliminary insulin and PEG-HTA-insulin containing the same amount of insulin were injected into test rabbits and blood sugar levels measured by the "Glucostat" method (Worthington Biochemical Corporation, Freehold, N. J.).

[6] = Insulin activity (animal assay); conditions: in vivo
[7] = intravenous, 8 hrs (animals fed after 5 hrs)

## Hydrogen Peroxide: Hydrogen-Peroxide Oxidoreductase (1.11.1.6; "Catalase")-2-PEG-4-Hydroxy-1,3,5-Triazin-6-yl Conjugate [modified catalase]
[1]
  complement-fixing activity: negative
[2]
  precipitating antibodies, gel diffusion: no evidence of any cross-reactions

## Hydrogen-peroxide: hydrogen-peroxide oxidoreductase [Unmodified catalase]
[1]
  complement-fixing activity: positive
[2]
  precipitating antibodies, gel diffusion: positive

## Insulin PEG-4-Hydroxy-1,3,5-Triazin-6-yl Conjugate [PEG HTA Insulin (pH 9.2)]
[3]; intravenous, 0 hrs (initial level)
  Blood Glucose Level: 305 mg/100 ml.
[3]; intravenous, 2 hrs
  % Drop Over Control: 76.2%
  Blood Glucose Level: 72.5 mg/100 ml.
  Drop Over Initial Level: 232 mg/100 ml
[3]; intravenous, 4 hrs
  % Drop Over Control: 66.7%
  Blood Glucose Level: 101.5 mg/100 ml.
  Drop Over Initial Level: 203.5 mg/100 ml
[3]; [7]
  % Drop Over Control: 24.6%
  Blood Glucose Level: 230 mg/100 ml.
  Drop Over Initial Level: 75 mg/100 ml

## insulin [Unmodified Insulin]
[4]
  Insulin Antibodies Activity (radioimmunoassay): 127 μ units/ml.
[3]; intramuscularly, 0 hrs (initial level)
  Blood Glucose Level: 410 mg/100 ml.
[3]; intramuscularly, 1 hr
  % Drop Over Control: 32.9%
  Blood Glucose Level: 295 mg/100 ml.
  Drop Over Initial Level: 135 mg/100 ml
[3]; intramuscularly, 2 hrs
  % Drop Over Control: 34.1%
  Blood Glucose Level: 270 mg/100 ml.
  Drop Over Initial Level: 140 mg/100 ml
[3]; intramuscularly, 4 hrs
  % Drop Over Control: 29.2%
  Blood Glucose Level: 290 mg/100 ml.
  Drop Over Initial Level: 120 mg/100 ml
[3]; intramuscularly, 6 hrs
  % Drop Over Control: 02.4%
  Blood Glucose Level: 400 mg/100 ml.
  Drop Over Initial Level: 10 mg/100 ml
[5]
  Blood Glucose Level: 20 % of normal
[6]
  Insulin Activity (animal assay): 137 μ units/ml.
